# Patent publication US9108947B2, “Inhibitors of the Renal Outer Medullary Potassium channel” (Merck Sharp & Dohme Corp., priority 2011, dated 2015)
# Like-named read-outs stand apart in the source and are kept apart here.
# Columns and labels:
# hROMK (hKir1.1) = hROMK (hKir1.1) (Homo sapiens (Human), UniProt P48048); experiment: Thallium Flux Assay (ROMK channel functional thallium flux, FLIPR-Tetra); format: cell-based; conditions: HEK293 cells stably expressing hROMK (hKir1.1); 30 min compound incubation
# Description: (§1) Several assays may be used to measure functional inhibition of the ROMK channel by compounds of the instant invention. One assay that can be used is an electrophysiology assay that measures the electrical current that is generated as potassium permeates through the channel. Another ROMK functional assay makes use of the ability of thallium to permeate through open ROMK channels and increase the fluorescence of a dye previously loaded into the cells. Under control conditions, cells loaded with dye and exposed to thallium-containing medium display a time-dependent increase in fluorescence, the rate of which depends on number of functional channels. When cells are incubated in the presence of a channel inhibitor, the increase in fluorescence is attenuated in a concentration-dependent manner, and IC50 values of inhibition by compounds can be accurately determined. This assay has been established with cell lines expressing either human, or rat ROMK channels, and operates in 384-well format.
# HEK293 cells stably expressing hROMK (hKir1.1) were grown at 37° C. in a 10% CO2 humidified incubator in complete growth media: Dulbecco's Modified Eagle Medium supplemented with non-essential amino acids, Penicillin/Streptomycin/Glutamine, G418 and FBS. At >80% confluency, the media was aspirated from the flask and the sample was rinsed with 10 ml Calcium/Magnesium-free PBS. […] To dislodge the cell, the side of the flask was gently banged with a hand. The cells were triturated completely and then transferred to 25 ml complete media. The sample was then centrifuged at 1,500 rpm for 6 minutes, followed by resuspension in complete growth media and then cell concentration was determined. […] Under ideal growth conditions and appropriate tissue culture practices, this cell line is stable for 40-45 passages.
# • FluxOR™ Reagent (Component A) • FluxOR™ Assay Buffer (Component B)—10× Concentrate • PowerLoad™ Concentrate (Component C)—100× Concentrate • Probenecid (Component D) Lyophilized sample is kept at −20° C. Water soluble, 100× after solubilization in 1 ml water. […] Store at 4° C. • Thallium sulfate (Tl2SO4) Concentrate (Component G)—50 mM in water. […] Can be stored at room temperature • Stimulant Buffer (prepared at 5× final concentration in 1× FluxOR™Chloride-Free Buffer): 7.5 mM Thallium sulfate and 0.75 mM Potassium sulfate (to give a final assay concentration of 3 mM Thallium 0.3 mM Potassium). Store at 4° C. when not in use. If kept sterile, this solution is good for months. Assay Protocol—
# The ROMK channel functional thallium flux assay is performed in 384 wells, using the FLIPR-Tetra instrument. HEK-hKir1.1 cells are seeded in Poly-D-Lysine microplates and kept in a 37° C.-10% CO2 incubator overnight. On the day of the experiment, the growth media is replaced with the FluxOR™ reagent loading buffer and incubated, protected from light, at ambient temperature (23-25° C.) for 90 min. The loading buffer is replaced with assay buffer±test compound followed by 30 min incubation at ambient temperature, where the Thallium/Potassium stimulant is added to the microplate.
# • 1. Seed HEK-hKir1.1 cells (50 μl at 20,000 cells/well) in 384-well PDL coated Microplates • 2. Allow cells to adhere overnight in humidified 37° C./10% CO2 incubator • 3. Completely remove cell growth media from microplate and replace with 25 μl loading buffer • 4. Incubate Microplate at room temperature, protected form light, for 90 min • 5. Remove loading buffer and replace with 25 μl 1× Assay Buffer±test compound. • 6. Incubate microplate at room temperature, protected form light, for 30 min • 7. […] Excitation=400 nm, Emission=460 & 580 nm. Collect data for 10 min. Data Calculation—
# The fluorescence intensity of wells containing 3 μM of a standard control ROMK inhibitor of the present invention is used to define the ROMK-sensitive component of thallium flux. Fluorescence in the presence of test compounds is normalized to control values to provide % fluorescence change.
# Kir1.1 (ROMK1) = Kir1.1 (ROMK1) (Homo sapiens (Human), UniProt P48048); experiment: Electrophysiology Assay (whole cell voltage clamp, IonWorks Quattro); format: cell-based
# Description: as §1
# Chinese hamster ovary cells stably expressing Kir1.1 channels were maintained in T-75 flasks in cell culture media in a humidified 10% CO2 incubator at 37° C. Prior to an experiment, Kir1.1 expression was induced by overnight incubation with 1 mM sodium butyrate. […] After centrifugation, the cell pellet was resuspended in approximately 4.0 ml of bath solution and placed in the IonWorks® instrument. The intracellular solution consisted of (in mM): 80 K gluconate, 40 KCl, 20 KF, 3.2 MgCl2, 3 EGTA, 5 Hepes, pH 7.4. Electrical access to the cytoplasm was achieved by perforation in 0.13 mg/ml amphotericin B for 4 minutes.
# Voltage protocols and current recordings were performed using the IonWorks® HT software/hardware system. Currents were sampled at 1 kHz. No correction for liquid junction potentials was used. The test pulse, consisting of a 100 ms step to 0 mV from a holding potential of −70 mV, followed by a 100 ms voltage ramp from −70 mV to +70 mV, was applied before and after a 6 minutes compound incubation period. Test compounds were prepared by diluting DMSO stock solutions into the bath solution at 3× the final concentration and placed in the instrument in 96-well polypropylene plates. Current amplitudes were measured using the IonWorks® software.
# [1] = Chinese hamster ovary cells stably expressing Kir1.1, block during voltage step to 0 mV, 6 minutes compound incubation, read-out: EP Assay IC50
# Kir1.1 (ROMK1), sequence (P48048 whole entry, species assumed): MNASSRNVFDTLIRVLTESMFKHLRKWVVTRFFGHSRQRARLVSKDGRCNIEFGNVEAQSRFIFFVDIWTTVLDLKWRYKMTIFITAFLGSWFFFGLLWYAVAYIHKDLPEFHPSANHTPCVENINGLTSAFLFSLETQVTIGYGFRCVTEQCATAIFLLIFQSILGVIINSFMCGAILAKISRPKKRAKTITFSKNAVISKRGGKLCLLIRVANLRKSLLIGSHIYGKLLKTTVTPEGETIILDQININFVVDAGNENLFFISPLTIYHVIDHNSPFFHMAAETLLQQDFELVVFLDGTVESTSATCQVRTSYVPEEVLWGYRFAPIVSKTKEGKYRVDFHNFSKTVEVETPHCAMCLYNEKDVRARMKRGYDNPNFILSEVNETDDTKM
# hROMK (hKir1.1), sequence (P48048 whole entry): as the sequence (P48048 whole entry, species assumed) above
Compound,IC50 (hROMK (hKir1.1)),IC50 (Kir1.1 (ROMK1); [1]),IC50 (Kir1.1 (ROMK1))
"Cc1c([C@@H](O)CN2CC[C@H](NCC(O)c3ccc(C#N)cn3)C2)ccc2c1COC2=O (stereo partly drawn) [Example 11, 6-(1-Hydroxy-2-((S)-1-((R)-2-hydroxy-2-(4-methyl-1-oxo-1,3-dihydroisobenzofuran-5-yl)ethyl)pyrrolidin-3-ylamino)ethyl)nicotinonitrile]",648 nM,–,–
"Cc1c([C@@H](O)CN2CCCC2CNCC(O)c2ccc(C#N)cn2)ccc2c1COC2=O (single isomer, unassigned) [Example 9A]",188 nM,321 nM,–
"Cc1c([C@@H](O)CNC2CCCN(c3ccc(C#N)cn3)C2)ccc2c1COC2=O (stereo partly drawn) [Example 20, 6-(3-((R)-2-Hydroxy-2-(4-methyl-1-oxo-1,3-dihydroisobenzofuran-5-yl)ethylamino)piperidin-1-yl)nicotinonitrile]",265 nM,–,52 nM
"Cc1c([C@@H](O)CN2CCC(C3(Nc4nccn5cnnc45)CCC3)C2)ccc2c1COC2=O (stereo partly drawn) [Example 23, 5-((1R)-2-(3-(1-([1,2,4]Triazolo[4,3-a]pyrazin-8-ylamino)cyclobutyl)pyrrolidin-1-yl)-1-hydroxyethyl)-4-methylisobenzofuran-1(3H)-one]",401 nM,–,–
"Cc1c([C@@H](O)CN2CC[C@@H](NCC(O)c3ccc(C#N)cn3)C2)ccc2c1COC2=O (stereo partly drawn) [Example 10, 6-(1-Hydroxy-2-((R)-1-((R)-2-hydroxy-2-(4-methyl-1-oxo-1,3-dihydroisobenzofuran-5-yl)ethyl)pyrrolidin-3-ylamino)ethyl)nicotinonitrile]",504 nM,2060 nM,–
"Cc1c(C(CO)NCC2CCCN2C[C@H](O)c2ccc3c(c2C)COC3=O)ccc2c1COC2=O (stereo partly drawn) [Example 4, 5-{(1R)-1-Hydroxy-2-[2-({[2-hydroxy-1-(4-methyl-1-oxo-1,3-dihydro-2-benzofuran-5-yl)ethyl]amino}methyl)pyrrolidin-1-yl]ethyl}-4-methyl-2-benzofuran-1(3H)-one]",523 nM,278 nM,–
"Cc1c([C@@H](O)CN2CCC(CNc3ccc(C#N)cn3)(c3ccccc3)C2)ccc2c1COC2=O (stereo partly drawn) [Example 22, 6-((1-((R)-2-Hydroxy-2-(4-methyl-1-oxo-1,3-dihydroisobenzofuran-5-yl)ethyl)-3-phenylpyrrolidin-3-yl)methylamino)nicotinonitrile]",808 nM,340 nM,–
"Cc1c([C@@H](O)CNCC2CCCCN2C[C@H](O)c2ccc3c(c2C)COC3=O)ccc2c1COC2=O (stereo partly drawn) [Example 5, 5-{(1R)-1-Hydroxy-2-[2-({[(2R)-2-hydroxy-2-(4-methyl-1-oxo-1,3-dihydro-2-benzofuran-5-yl)ethyl]amino}methyl)piperidin-1-yl]ethyl}-4-methyl-2-benzofuran-1(3H)-one]",82 nM,–,–
"Cc1c([C@@H](O)CNCC2(C)CCN(C[C@H](O)c3ccc4c(c3C)COC4=O)C2)ccc2c1COC2=O (stereo partly drawn) [Example 7, 5-{(1R)-1-Hydroxy-2-[3-({[(2R)-2-hydroxy-2-(4-methyl-1-oxo-1,3-dihydro-2-benzofuran-5-yl)ethyl]amino}methyl)-3-methylpyrrolidin-1-yl]ethyl}-4-methyl-2-benzofuran-1(3H)-one]",277 nM,–,–
"Cc1c([C@@H](O)CN2CCCC2CNS(=O)(=O)c2ccc(-n3cnnn3)cc2)ccc2c1COC2=O (stereo partly drawn) [Example 19, N-((1-((R)-2-Hydroxy-2-(4-methyl-1-oxo-1,3-dihydroisobenzofuran-5-yl)ethyl)pyrrolidin-2-yl)methyl)-4-(1H-tetrazol-1-yl)benzenesulfonamide]",206 nM,245 nM,–
"Cc1c(C(O)CN2CC[C@@H](NC[C@H](O)c3ccc4c(c3C)COC4=O)C2)ccc2c1COC2=O (stereo in doubt) [Example 1, 5-{(1R)-1-Hydroxy-2-[(3R)-3-{[(2R)-2-hydroxy-2-(4-methyl-1-oxo-1,3-dihydro-2-benzofuran-5-yl)ethyl]amino}pyrrolidin-1-yl]ethyl}-4-methyl-2-benzofuran-1(3H)-one]",414 nM,595 nM,–
"Cc1c([C@@H](O)CN2CCCC2CNCC(O)c2ccc(C#N)cn2)ccc2c1COC2=O (single isomer, unassigned) [Example 9B]",290 nM,254 nM,–
"Cc1c([C@@H](O)CNC2C[C@H]3C[C@@H]2N(C[C@H](O)c2ccc4c(c2C)COC4=O)C3)ccc2c1COC2=O (single isomer, unassigned) [Example 17B]",581 nM,–,–
"Cc1c([C@@H](O)CN2CC(CNS(=O)(=O)c3ccc(C#N)cc3)C2)ccc2c1COC2=O [Example 14, (R)-4-Cyano-N-((1-(2-hydroxy-2-(4-methyl-1-oxo-1,3-dihydroisobenzofuran-5-yl)ethyl)azetidin-3-yl)methyl)benzenesulfonamide]",122 nM,150 nM,–
"Cc1c([C@@H](O)CN2CCC(C)(CNc3ccc(C#N)cn3)C2)ccc2c1COC2=O (stereo partly drawn) [Example 21, 6-((1-((R)-2-Hydroxy-2-(4-methyl-1-oxo-1,3-dihydroisobenzofuran-5-yl)ethyl)-3-methylpyrrolidin-3-yl)methylamino)nicotinonitrile]",547 nM,103 nM,–
"Cc1c([C@@H](O)CNCC2CCCN2C[C@H](O)c2ccc3c(c2C)COC3=O)ccc2c1COC2=O (stereo partly drawn) [Example 3, 5-{(1R)-1-Hydroxy-2-[2-({[(2R)-2-hydroxy-2-(4-methyl-1-oxo-1,3-dihydro-2-benzofuran-5-yl)ethyl]amino}methyl)pyrrolidin-1-yl]ethyl}-4-methyl-2-benzofuran-1(3H)-one]",176 nM,510 nM,–
"Cc1c([C@@H](O)CN2CC(CNS(=O)(=O)Cc3ccc(C#N)cc3)C2)ccc2c1COC2=O [Example 16, (R)-1-(4-Cyanophenyl)-N-((1-(2-hydroxy-2-(4-methyl-1-oxo-1,3-dihydroisobenzofuran-5-yl)ethyl)azetidin-3-yl)methyl)methanesulfonamide]",1040 nM,–,–
"Cc1c([C@@H](O)CNCC2(C)CCCN(C[C@H](O)c3ccc4c(c3C)COC4=O)C2)ccc2c1COC2=O (stereo partly drawn) [Example 8, 5-{(1R)-1-Hydroxy-2-[3-({[(2R)-2-hydroxy-2-(4-methyl-1-oxo-1,3-dihydro-2-benzofuran-5-yl)ethyl]amino}methyl)-3-methylpiperidin-1-yl]ethyl}-4-methyl-2-benzofuran-1(3H)-one]",847 nM,–,–
"Cc1c([C@@H](O)CN2CCC(CNc3nccn4cnnc34)(c3ccccc3)C2)ccc2c1COC2=O (stereo partly drawn) [Example 24, 5-((1R)-2-(3-(([1,2,4]Triazolo[4,3-a]pyrazin-8-ylamino)methyl)-3-phenylpyrrolidin-1-yl)-1-hydroxyethyl)-4-methylisobenzofuran-1(3H)-one]",893 nM,–,–
